Values quoted from earlier work, collected in patent US20050197342A1, “Substituted nitrogen-containing six-membered amino-heterocycles as vanilloid-1 receptor antagonists for treating pain” (priority 2003, published 2005).

Target: VR1 (Rattus norvegicus, UniProt O35433)
Settings: Wahl et al., Mol. Pharmacol., 59:9, 2001

VR1, sequence (O35433 whole entry): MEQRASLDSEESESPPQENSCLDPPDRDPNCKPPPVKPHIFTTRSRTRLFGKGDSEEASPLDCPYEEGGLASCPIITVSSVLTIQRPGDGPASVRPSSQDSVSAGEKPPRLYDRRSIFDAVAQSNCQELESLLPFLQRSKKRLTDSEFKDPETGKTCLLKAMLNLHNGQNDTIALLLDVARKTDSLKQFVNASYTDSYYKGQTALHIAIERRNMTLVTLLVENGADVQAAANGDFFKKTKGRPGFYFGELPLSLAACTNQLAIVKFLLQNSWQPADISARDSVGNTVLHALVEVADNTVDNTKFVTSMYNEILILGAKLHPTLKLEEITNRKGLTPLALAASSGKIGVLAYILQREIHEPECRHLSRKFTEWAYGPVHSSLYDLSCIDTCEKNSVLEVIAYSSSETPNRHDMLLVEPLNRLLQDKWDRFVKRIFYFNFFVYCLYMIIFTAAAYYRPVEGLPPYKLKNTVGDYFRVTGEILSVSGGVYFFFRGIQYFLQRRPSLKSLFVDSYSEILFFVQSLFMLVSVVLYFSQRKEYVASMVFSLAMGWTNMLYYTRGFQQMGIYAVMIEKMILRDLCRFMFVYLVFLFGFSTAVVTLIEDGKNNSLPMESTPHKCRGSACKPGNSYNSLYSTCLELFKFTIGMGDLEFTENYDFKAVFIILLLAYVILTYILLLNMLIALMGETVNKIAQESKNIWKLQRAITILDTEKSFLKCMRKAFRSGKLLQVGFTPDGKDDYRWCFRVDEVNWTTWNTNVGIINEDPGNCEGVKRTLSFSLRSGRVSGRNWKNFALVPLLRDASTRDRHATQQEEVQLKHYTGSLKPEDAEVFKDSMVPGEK

C=C(C)[C@]12C[C@@H](C)[C@@]34O[C@](Cc5ccccc5)(O[C@@H]1[C@@H]3C=C(COC(=O)Cc1cc(I)c(O)c(OC)c1)C[C@]1(O)C(=O)C(C)=C[C@@H]41)O2 [Iodo-resiniferatoxin]
antagonist of VR1: nanomolar antagonist
